According to patent US20050014137A1, “Lentivirus assay system including Vif protein activity” (priority 2003, published 2005):
Like-named read-outs stand apart in the source and are kept apart here. Values belong to the compound of their own block, whether it stands above or below them.

Columns and labels:
HIV-1 NL4.3 [1] = assay: MT-2 cell-based HIV co-culture assay (HeLa CD4 LTR/lacZ indicator cells, β-Gal reporter); conditions: for EC50: read-out: MT-2 Co-Culture Assay EC50; for EC90: read-out: MT-2 Co-Culture Assay EC90
Procedure: HeLa CD4 LTR/lacZ indicator cells were added to 96-well microtiter plates at cell densities of 1×10^4 cells/well in DMEM or RPMI medium (Life Technologies) containing 10% FBS (HyClone). MT-2 cells were infected with HIV-1 NL4.3 using 656, 1312, 2624, or 5248 TCID50s per 1.6×10^4 cells. Two hours after infection, infected MT-2 cells were washed with RPMI medium (Life Technologies) and added to the 96-well microtiter plates containing the HeLa CD4 LTR/lacZ indicator cells. The final MT2-cell densities in the indicator wells were 1.6×10^4 cells/well.
Virus replication was measured 4 days after infection by quantifying HIV-1 Tat induced beta-galactosidase (β-Gal) activity in the HeLa CD4 LTR/lacZ indicator cells using the Dual-Light™ System according to the manufacturer's protocol (Applied Biosystems). Experiments were performed in replicates of 3 or more.
Half-log dilutions of test compounds were added to HeLa CD4 LTR/lacZ indicator cells seeded in 96-well plates at a cell density of 1×10^4 cells per well in DMEM or RPMI (Life Technologies) containing 10% FBS (HyClone). MT-2 cells were infected with HIV-1 NL4.3 virus at an MOI of 0.08. Two hours after infection, infected cells were washed with RPMI, resuspended in RPMI medium, and added to the 96-well plates containing compound-treated or compound free HeLa CD4 LTR/lacZ indicator cells. Virus replication was measured 3 or 4 days after infection by quantifying HIV-1 Tat induced β-Gal activity in the HeLa CD4 LTR/lacZ indicator cells using the Dual-Light™ System according to the manufacturer's protocol (Applied Biosystems).
Data was expressed as the percent of reporter gene activity in infected compound-treated cells relative to that of infected, compound-free cells.

HIV-1 NL4.3 [2] = assay: PM1 cell-based HIV co-culture assay (HeLa CD4 LTR/lacZ indicator cells, β-Gal reporter); conditions: for EC50: read-out: PM-1 Co-Culture Assay EC50; for EC90: read-out: PM-1 Co-Culture Assay EC90
Excerpt: (§1) The modifications were as follows: PM1 cells were used in place of the MT-2 cells.
as §1

HIV-1 = conditions: range of EC50 values reported in the literature, NIH anti-HIV therapeutics database, cited from earlier work
HIV-1 NL4.3 [3] = assay: Direct infection of HeLa CD4 LTR/lacZ indicator cells (known reporter cell assay); format: cell-based
Excerpt: This Example compared the present HIV co-culture assay with a known reporter cell-based assay method. This known method involved direct infection of HeLa CD4 LTR/lacZ indicator cells with HIV-1 (Kimpton and Emerman, J. Virol., 66(4):2232-2239 (1992)).
HeLa CD4 LTR/lacZ indicator cells were directly infected with TCID50s identical to those used in the co-culture experiments described in Examples 1 and 2. HeLa CD4 LTR/lacZ indicator cells were infected directly with HIV-1 NL4.3 using 656, 1312, 2624, or 5248 TCID50s per 1×10^4 cells.

[4] = Human immunodeficiency virus 1, MT2, 96 h
[5] = Human immunodeficiency virus 1, PM1, 96 h
[6] = Human immunodeficiency virus 1, MT2, 96 h, induced β-Gal activity 4 days after HIV-1 NL4.3 infection, MT-2 cells, MOI 0.08
[7] = Human immunodeficiency virus 1, PM1, 96 h, induced β-Gal activity 4 days after HIV-1 NL4.3 infection, PM-1 cells
[8] = read-out: Literature EC50 (Table 1)
[9] = read-out: Literature EC50 (Table 2)
[10] = Human immunodeficiency virus 1, 96 h, read-out: inhibition of the reporter signal
[11] = induced β-Gal activity 4 days after HIV-1 NL4.3 infection, MT-2 cells, MOI 0.08
[12] = induced β-Gal activity 4 days after HIV-1 NL4.3 infection, PM-1 cells

Compound: Nc1ccn([C@@H]2CS[C@H](CO)O2)c(=O)n1 [3TC, lamivudine]
EC50 (HIV-1 NL4.3 [1]; [4]): 420 nM
EC90 (HIV-1 NL4.3 [1]; [4]): 5500 nM
EC50 (HIV-1 NL4.3 [2]; [5]): 180 nM
EC90 (HIV-1 NL4.3 [2]; [5]): 1700 nM

Compound: CC(C)(C)C(=O)OCOP(=O)(COCCn1cnc2c(N)ncnc21)OCOC(=O)C(C)(C)C [ADV, adefovir dipivoxil]
EC50 (HIV-1 NL4.3 [1]; [6]): 39 nM
EC90 (HIV-1 NL4.3 [1]; [6]): 220 nM
EC50 (HIV-1 NL4.3 [2]; [7]): 25 nM
EC90 (HIV-1 NL4.3 [2]; [7]): 150 nM
EC50 (HIV-1; [8]): 40 to 500 nM
EC50 (HIV-1; [9]): 40 to 500 nM

Compound: O=C(O)C1=CC(=C(c2ccc(O)c(C(=O)O)c2)c2ccc(O)c(C(=O)O)c2)C=CC1=O [ATA, aurintricarboxylic acid]
EC50 (HIV-1 NL4.3 [1]; [4]): 3300 nM
EC90 (HIV-1 NL4.3 [1]; [4]): 9900 nM

Compound: Cc1cn([C@H]2C[C@H](N=[N+]=[N-])[C@@H](CO)O2)c(=O)[nH]c1=O [AZT, 3′-Azido-3′-deoxythymidine]
EC50 (HIV-1 NL4.3 [1]; [4]): 31 nM
EC90 (HIV-1 NL4.3 [1]; [4]): 280 nM
EC50 (HIV-1 NL4.3 [2]; [5]): 30 nM
EC90 (HIV-1 NL4.3 [2]; [5]): 180 nM
EC50 (HIV-1; [8]): 6 to 90 nM
EC50 (HIV-1; [9]): 6 to 90 nM

Compound: CC(C)c1nc(COC(N)=O)n(Cc2ccncc2)c1Sc1cc(Cl)cc(Cl)c1 [CPV, Capravirine]
EC50 (HIV-1 NL4.3 [1]; [4]): 2.4 nM
EC90 (HIV-1 NL4.3 [1]; [4]): 12 nM

Compound: CC(C)Nc1cccnc1N1CCN(C(=O)c2cc3cc(NS(C)(=O)=O)ccc3[nH]2)CC1 [DLV, delavirdine]
EC50 (HIV-1 NL4.3 [1]; [4]): 34 nM
EC90 (HIV-1 NL4.3 [1]; [4]): 110 nM
EC50 (HIV-1 NL4.3 [2]; [5]): 5.9 nM
EC90 (HIV-1 NL4.3 [2]; [5]): 100 nM
EC50 (HIV-1; [8]): 0.1 to 10 nM
EC50 (HIV-1; [9]): 0.1 to 10 nM

Compound: O=C1Nc2ccc(Cl)cc2[C@@](C#CC2CC2)(C(F)(F)F)O1 [EFV, efavirenz]
inhibition of the reporter signal (HIV-1 NL4.3 [3]; inhibitor at >10×EC90): > 99%
inhibition at 0.1 µM (HIV-1 NL4.3 [1]; [10]): > 99%
EC50 (HIV-1 NL4.3 [1]; [4]): 1.4 nM
EC90 (HIV-1 NL4.3 [1]; [4]): 4.3 nM
EC50 (HIV-1 NL4.3 [2]; [5]): 0.19 nM
EC90 (HIV-1 NL4.3 [2]; [5]): 6.2 nM

Compound: CC(C)(C)NC(=O)[C@@H]1CN(Cc2cccnc2)CCN1C[C@@H](O)C[C@@H](Cc1ccccc1)C(=O)N[C@H]1c2ccccc2C[C@H]1O [IDV, indinavir]
EC50 (HIV-1 NL4.3 [1]; [4]): 26 nM
EC90 (HIV-1 NL4.3 [1]; [4]): 55 nM
EC50 (HIV-1 NL4.3 [2]; [5]): 12 nM
EC90 (HIV-1 NL4.3 [2]; [5]): 47 nM
EC50 (HIV-1; [8]): 1.1 to 60 nM
EC50 (HIV-1; [9]): 1.1 to 60 nM

Compound: O=C(NCc1ccc(F)cc1)c1nc(N2CCCCS2(=O)=O)c2cccnc2c1O [L-870810]
EC50 (HIV-1 NL4.3 [1]; [11]): 1.4 nM
EC90 (HIV-1 NL4.3 [1]; [11]): 5.9 nM
EC50 (HIV-1 NL4.3 [2]; [12]): 0.61 nM
EC90 (HIV-1 NL4.3 [2]; [12]): 2.4 nM
EC50 (HIV-1; [8]): 4 to 8 nM
EC50 (HIV-1; [9]): 4 to 8 nM

Compound: Cc1c(O)cccc1C(=O)N[C@@H](CSc1ccccc1)[C@H](O)CN1C[C@H]2CCCC[C@H]2C[C@H]1C(=O)NC(C)(C)C [NFV, nelfinavir]
inhibition of the reporter signal (HIV-1 NL4.3 [3]; inhibitor at 10×EC90): 42%
inhibition at 1 µM (HIV-1 NL4.3 [1]; [10]): ~98%
EC50 (HIV-1 NL4.3 [1]; [4]): 18 nM
EC90 (HIV-1 NL4.3 [1]; [4]): 100 nM
EC50 (HIV-1 NL4.3 [2]; [5]): 10 nM
EC90 (HIV-1 NL4.3 [2]; [5]): 58 nM
inhibition of the reporter signal (HIV-1 NL4.3 [2]; PM1 co-culture, inhibitor at ≧10×EC90): 99%
EC50 (HIV-1; [8]): 10 to 43 nM
EC50 (HIV-1; [9]): 10 to 43 nM

Compound: Cc1ccnc2c1NC(=O)c1cccnc1N2C1CC1 [NVP, Nevirapine]
EC50 (HIV-1 NL4.3 [1]; [6]): 46 nM
EC90 (HIV-1 NL4.3 [1]; [6]): 380 nM
EC90 (HIV-1 NL4.3 [2]; [5]): 260 nM
EC50 (HIV-1 NL4.3 [2]; [7]): 12 nM
EC50 (HIV-1; [8]): 24 to 48 nM
EC50 (HIV-1; [9]): 24 to 48 nM

EC50 (HIV-1 NL4.3 [1]; [6]): 88 nM
EC90 (HIV-1 NL4.3 [1]; [6]): 1090 nM
EC50 (HIV-1 NL4.3 [2]; [7]): 91 nM
EC90 (HIV-1 NL4.3 [2]; [7]): 280 nM
Compound: O=C(/C=C(\O)c1nc[nH]n1)c1ccc(Cc2ccc(F)cc2)o1 [S-1360]

Compound: CC(C)(C)NC(=O)[C@@H]1C[C@@H]2CCCC[C@@H]2CN1C[C@@H](O)[C@H](Cc1ccccc1)NC(=O)[C@H](CC(N)=O)NC(=O)c1ccc2ccccc2n1 [SQV, saquinavir]
EC50 (HIV-1 NL4.3 [1]; [4]): 12 nM
EC90 (HIV-1 NL4.3 [1]; [4]): 26 nM
EC50 (HIV-1 NL4.3 [2]; [5]): 5.3 nM
EC90 (HIV-1 NL4.3 [2]; [5]): 34 nM
EC50 (HIV-1; [8]): 0.2 to 57 nM
EC50 (HIV-1; [9]): 0.2 to 57 nM

Compound: Cc1cn([C@H]2C=C[C@@H](CO)O2)c(=O)[nH]c1=O [d4T, stavudine]
EC50 (HIV-1 NL4.3 [1]; [4]): 210 nM
EC90 (HIV-1 NL4.3 [1]; [4]): 3600 nM
EC50 (HIV-1; [8]): 10 to 8000 nM

Compound: O=c1[nH]cnc2c1ncn2[C@H]1CC[C@@H](CO)O1 [ddl, didanosine]
EC50 (HIV-1 NL4.3 [1]; [4]): 1700 nM
EC90 (HIV-1 NL4.3 [1]; [4]): 14000 nM
EC50 (HIV-1; [8]): 460 to 10000 nM
